The text below walks through data of US20130090303A1, “Agonists of PY2Y Receptor as a Treatment for Aortic Stenosis and Cardiovascular Calcification” (UNIVERSITE LAVAL, priority 2011, published 2013).

Experiment [1] has as its system valve interstitial cells (VICs). As to the kind of experiment: In vitro calcification of isolated valve interstitial cells (calcium by Arsenazo III method). The class given is cell-based. The following applies: isolated human VICs, pro-calcifying medium 7 days; FIG. 2A/2B. How it is done:
In isolated cells, calcium was measured by the Arsenazo III method (Côte N, et al. J Mol Cell Cardiol 2012;52:1191-202) and results reported as percent changes.
(§1) Human valve interstitial cells (VICs) were isolated by collagenase digestion. To provoke calcification, cells were incubated for 7 days with a pro-calcifying medium containing: DMEM+5% FBS, 10^−7 M insulin, 50 μg /ml ascorbic acid and NaH2PO4 at 2 mM.

Experiment [2] deals with Runx2, osteocalcin. The experiment can be described thus: Real-time PCR expression of Runx2 and osteocalcin in isolated VICs. The format is cell-based, Human. To be noted: q-PCR normalized to HPRT, FIG. 2C. Here is the method:
RNA was also extracted from AS valves and cells during in vitro experiments. Total RNA was isolated with RNeasy micro kit from Qiagen (Qiagen, Mississauga, Ont, Canada). The RNA extraction protocol was performed according to manufacturer's instructions using 100 mg of tissue. The quality of total RNA was monitored by capillary electrophoresis (Experion, Biorad, Mississauga, Ont, Canada). Four (4) μg of RNA was reverse transcribed using the Quantitec Reverse Transcription Kit from Qiagen. Quantitative real-time PCR (q-PCR) was performed with Quantitec SYBR Green PCR kit from Qiagen in the Rotor-Gene 6000 system (Corbett Robotics Inc, San Francisco, Calif., USA). The following primers were obtained from (Invitrogen, Burlington, Ont, Canada): P2Y2, Runx2, osteocalcin. The expression of hypoxanthine-guanine phosphoribosyltransferase (HPRT) (Invitrogen, Burlington, On, Canada) as a reference gene was chosen to normalize the results.
as §1

Consider `O=c1ccn([C@@H]2O[C@H](COP(=O)(O)OP(=O)(O)OP(=O)(O)O)[C@@H](O)[C@H]2O)c(=S)[nH]1` [2-thioUTP], for which the “calcification of isolated VICs” value in experiment [1] is “reduced significantly calcification”. In addition, in experiment [2], the expression of osteocalcin result was “decreased the expression” and the “expression of the bone transcription factor, Runx2” value is “decreased the expression”.
On to `Cc1ccc(C(=O)Nc2ccc(S(=O)(=O)O)c3cc(S(=O)(=O)O)cc(S(=O)(=O)O)c23)cc1NC(=O)c1cccc(NC(=O)Nc2cccc(C(=O)Nc3cc(C(=O)Nc4ccc(S(=O)(=O)O)c5cc(S(=O)(=O)O)cc(S(=O)(=O)O)c45)ccc3C)c2)c1` [suramin], for which the “calcification of isolated VICs” value in experiment [1] is on record as “increased calcification”.
